Key:
[1] = molecular target: neutravidin alone (Gallus gallus, UniProt P02701); experiment: Phagemid ELISA, neutravidin background; format: binding; settings: clonal phage displaying the peptide; ELISA signal on neutravidin alone
Experimental: The next day the deep well plates were centrifuged to separate the soluble phagemid from the E. coli cells. The phagemid containing supernatants were then combined with PBS-Tween 20 (0.05%) + BSA (1%) blocking buffer and incubated in ELISA wells containing Neutravidin captured biotin-conjugated target or Neutravidin alone. After binding at 4 degrees the plates were washed, and specifically bound phage were detected by anti-m13 HRP conjugated antibodies using standard TMB-based chromogenic ELISA procedures. Daughter plates or individual wells were subjected to standard DNA sequencing for clonal peptide sequence identification.
The next day the deep well plates were centrifuged to separate the soluble phagemid from the E. coli cells. The phagemid containing supernatants were then combined with PBS-Tween 20 (0.05%) + BSA (1%) pH neutral blocking buffer and incubated in previously TCR coated and blocked wells. After binding at 4° C. the plates were washed and specifically bound phage were detected by anti-m13 HRP conjugated antibodies using standard TMB-based chromogenic ELISA procedures (FIG. 17B). Daughter plates or individual wells were subjected to standard DNA sequencing for peptide identification.

[2] = test system: TCR-1 binding to MAGE-A3 pMHC; experiment: Inhibition of kinetic binding of TCR to its cognate pMHC (BLI); settings: Table 3
Experimental: First, biotinylated pMHC was captured on streptavidin biosensors. Sensors were quenched using excess biocytin and then baselined in buffer. Inhibitory peptide was titrated in a two fold dilution series starting from 100 uM and pre-incubated with a constant concentration of 50 nM TCR. Peptide and TCR mixtures were then associated onto the pMHC loaded biosensor. Zero concentration of inhibitory peptide or zero concentration of TCR were used as controls. Association and dissociation signals were monitored in real-time. The maximal association signal was normalized from 100% (0 uM inhibitory peptide control) to 0% (0 nM TCR control) and plotted versus log-scale inhibitory peptide concentration.

[3] = test system: TCR-3; experiment: Inhibitory peptide specificity evaluation (BLI); format: binding; settings: 100 uM TCR on Peptide-5 saturated biosensor
Experimental: (§1) Potent inhibitory peptides were tested for TCR specific binding. […] This family of TCRs differ in sequence by point mutations in the CDR domains know to contribute to binding affinity and specificity for cognate MAGE-A3 pMHC. […] TCRs were associated at the extreme concentration of 100 uM onto the inhibitory peptide loaded biosensor. In parallel, 100 uM TCRs were associated on a blank control sensor to establish background signal related to non-specific binding of the TCRs. Association and dissociation signals were monitored in real-time.

[4] = test system: TCR-1; experiment: Inhibitory peptide specificity evaluation (BLI); format: binding; settings: 100 uM TCR on Peptide-5 saturated biosensor
Experimental: as §1

[5] = test system: TCR-2; experiment: Inhibitory peptide specificity evaluation (BLI); format: binding; settings: 100 uM TCR on Peptide-5 saturated biosensor
Experimental: as §1

[6] = test system: TCR-4; experiment: Inhibitory peptide specificity evaluation (BLI); format: binding; settings: 100 uM TCR on Peptide-5 saturated biosensor
Experimental: as §1

[7] = test system: MAGE-A3 TCR (TCR-1); experiment: Kinetic binding of TCR to peptides (Octet BLI); settings: Table 3; Ala mutants of Peptide-5 and controls
Experimental: BLI based kinetic binding of TCR to peptides was measured using a ForteBio Octet RED96 instrument. Biotinylated peptides were first directly captured on streptavidin biosensors. Sensors were quenched using excess biocytin and then baselined in buffer. A dilution series of TCR was made and associated onto the peptide loaded biosensor. Association and dissociation signals were monitored in real-time. Signals were fit to a 1:1 binding model in order to derive binding constants, kon and koff, as well as KD.

[8] = molecular target: TCR-1 binding to MAGE-A3 pMHC; experiment: Inhibition of equilibrium binding of TCR to its cognate pMHC (ELISA)
Experimental: Inhibition of TCR binding to its cognate pMHC was also measured in an ELISA format. Biotinylated pMHC was captured on neutravidin coated plates, quenched using excess biocytin, and washed. Inhibitory peptide was titrated in a half-log dilution series starting from 100 uM and pre-incubated with a constant concentration of 1 nM TCR. Inhibitory peptide and TCR mixtures were then incubated on the pMHC captured plates. A secondary HRP antibody conjugate that recognized the histag of the TCR was then used to detect the plate bound TCR. […] Dose dependent decrease of signal was indicative of peptides that compete for TCR binding to its cognate pMHC.

neutravidin alone, sequence (P02701 25-152): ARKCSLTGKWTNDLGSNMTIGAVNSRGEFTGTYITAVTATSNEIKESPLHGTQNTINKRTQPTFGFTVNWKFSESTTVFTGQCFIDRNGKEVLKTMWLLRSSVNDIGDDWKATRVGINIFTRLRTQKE

| Phage ELISA NAv bkgd [1] | Octet BLI Competes at 100 uM [2] | binding of Peptide-5 to TCR-1 [4] | Octet BLI Binds TCR [7] | IC50 ([8]; Table 2, 1 nM TCR) [nM] | IC50 ([8]; Table 3) [nM] | SMILES | binding of Peptide-5 to TCR-3 [3] | binding of Peptide-5 to TCR-2 [5] | binding of Peptide-5 to TCR-4 [6] |
| --- | --- | --- | --- | --- | --- | --- | --- | --- | --- |
| 0.13 |  |  |  |  |  | CC(C)[C@H](NC(=O)[C@@H]1CSSC[C@H](NC(=O)CNC(=O)CNC(=O)CN)C(=O)N[C@@H](Cc2ccccc2)C(=O)N[C@@H](C(C)C)C(=O)N[C@@H](CO)C(=O)N2CCC[C@H]2C(=O)N[C@@H](C)C(=O)N[C@@H]([C@@H](C)O)C(=O)NCC(=O)N[C@@H](Cc2ccccc2)C(=O)N[C@@H]([C@@H](C)O)C(=O)N[C@@H](Cc2c[nH]c3ccccc23)C(=O)N1)C(=O)NCC(=O)NCC(=O)NCC(=O)NCC(=O)N[C@@H](CO)C(=O)NCCOCCOCCOCCOCCC(=O)N[C@@H](CCCCNC(=O)CCCC[C@@H]1SC[C@@H]2NC(=O)N[C@@H]21)C(N)=O [Peptide-17] |  |  |  |
|  | Yes | readily bound | Yes | 600 | 600 | CC(C)[C@H](NC(=O)CNC(=O)CN)C(=O)N[C@@H](CO)C(=O)N[C@H]1CSSC[C@@H](C(=O)N[C@@H](Cc2c[nH]c3ccccc23)C(=O)N[C@H](C(=O)NCC(=O)NCC(=O)NCC(=O)NCC(=O)N[C@@H](CO)C(=O)NCCOCCOCCOCCOCCC(=O)N[C@@H](CCCCNC(=O)CCCC[C@@H]2SC[C@@H]3NC(=O)N[C@@H]32)C(N)=O)[C@@H](C)O)NC(=O)[C@H](Cc2ccccc2)NC(=O)[C@H](C)NC(=O)[C@H](CCC(=O)O)NC(=O)[C@H](CC(=O)O)NC(=O)[C@H](Cc2ccc(O)cc2)NC(=O)[C@H](C(C)C)NC(=O)[C@H](CC(=O)O)NC(=O)[C@H](CCCCN)NC1=O [Peptide-5] | signal was identical to that of background | signal was identical to that of background | signal was identical to that of background |

— patent publication US20230220105A1, “TUMOR ACTIVATED T CELL ENGAGERS AND METHODS OF USE THEREOF” (Janux Therapeutics, Inc., priority 2019, published 2023)
